Reference: paper PMC6470533, “Structure–Activity Study, Characterization, and Mechanism of Action of an Antimicrobial Peptoid D2 and Its D- and L-Peptide Analogues” (Molecules, 2019)
Converted amounts (≈) assume the structure as drawn. Non-standard residues stand in square brackets, D forms with d. Residues, ends and D or L forms follow the SMILES beside them. N(1-naphthylmethyl)Gly = O=C(O)CNCc1cccc2ccccc12; d1Nal = N[C@H](Cc1cccc2ccccc12)C(=O)O; N(4-MeBn)Gly = Cc1ccc(CNCC(=O)O)cc1; dNle = CCCC[C@@H](N)C(=O)O; NBuGly = CCCCNCC(=O)O; Nlys = NCCCCNCC(=O)O

Columns and labels:
[1] = system: Methicillin sensitive Staphylococcus pseudintermedius (26916); assay type: cell-based; settings: 18 h
[2] = system: Methicillin resistant Staphylococcus pseudintermedius, (C22963); assay type: cell-based; settings: 18 h
[3] = system: Staphylococcus aureus (ATCC 29213); assay type: cell-based; settings: ATCC 29213, 18 h
E. coli, 30235 = assay type: cell-based, Escherichia coli; settings: 30235, 18 h
Protocol: (§1) To explore the antimicrobial activity of the library of peptides and peptidomimetics, they were tested against Acinetobacter baumannii, Corynebacterium auriscanis, Escherichia coli, Enterococcus faecalis, Enterococcus faecium, Klebsiella pneumonia, Proteus mirabilis, and Pseudomonas aeruginosa. Bacteria grown on agar plates for 18 h at 37 °C were diluted to ~1 × 10^8 CFU/mL in Mueller–Hinton broth (MHB). Two-fold serial dilutions of peptides and peptidomimetics in MHB II were inoculated with bacteria to achieve a final concentration of 5 × 10^5 CFU/mL in polypropylene 96 U-well microtiter plates (Almeco, Esbjerg, Denmark), followed by incubation at 37 °C in ambient air for 18 h. The MIC values were determined as the lowest concentration showing no visible bacterial growth. Experiments were performed twice (in technical triplicates) on two different days.

[4] = system: P. aeruginosa isolates from canine infections; assay type: cell-based, Pseudomonas aeruginosa
Protocol: as §1

[5] = system: DNA synthesis in MRSP E104; experiment: Macromolecule biosynthesis assay, DNA (3H-thymidine); assay type: cell-based, Staphylococcus pseudintermedius; settings: 0.5× MIC, 20 min incubation, MRSP E104, 3H-thymidine; means of two experiments
Protocol: (§2) The effect on DNA and cell wall synthesis was investigated after 20 min of incubation of MRSP E104 with the precursors ^3H-thymidine and ^3H-glucosamine hydrochloride, respectively, as previously reported by Ling et al.. Following macromolecule precipitation, radioactivity was counted using scintillation fluid. Incorporation of ^3H- or ^14C-labeled thymidine has been used to investigate DNA replication and transcriptional activity during the cell cycle; ^3H-glucosamine hydrochloride has been used in a mode of action study for the antimicrobial peptide plectasin, which targets the cell wall precursor lipid II [44].
(§3) Macromolecules (DNA and cell wall) biosynthesis rates were measured using strain MRSP E104 following a protocol adapted from Ling et al.. Briefly, overnight culture of E104 was diluted 1:100 in MHB and freshly grown up to OD 0.2 at 600 nm. Grown cells were pelleted down by centrifugation and then resuspended in fresh MHB medium followed by incubation for 20 min on a dry heat-bath with D2 or analogues or nisin and radiolabeled precursor: (50 µCi) ^3H-Thymidine (PerkinElmer) and (5 µCi) ^3H-glucosamine hydrochloride per mL for DNA and cell wall, respectively. A positive control without antimicrobials was maintained that corresponds to 100% synthesis rate. After 20 min of incubation, samples were precipitated with equal volume of cold 30% trichloroactic acid (TCA Sigma, Søborg, Denmark) on ice. After 15 to 30 min of incubation on ice, precipitates were filtered on a membrane filter and subsequently washed twice with cold 15% TCA and twice with cold water using a vacuum manifold. Next, filters were air dried overnight and then moved to 10 mL scintillation vials. Finally, 3 mL scintillation fluid was added to each vial and ^3H count was taken in Beckman Coulter LS6500 liquid scintillation counter for 1 min. The radioactive counts of the control samples with no antimicrobial exposure were considered to have 100% precursor incorporation and macromolecule synthesis. The percentage rates of macromolecule synthesis in the antimicrobial-exposed samples were calculated compared to control. Each experiment was performed twice with a technical replicate, and the average rates of synthesis were plotted.

[6] = system: cell wall synthesis in MRSP E104; experiment: Macromolecule biosynthesis assay, cell wall (3H-glucosamine hydrochloride); assay type: cell-based, Staphylococcus pseudintermedius; settings: 0.5× MIC, 20 min incubation, MRSP E104, 3H-glucosamine hydrochloride; means of two experiments
Protocol: as §2, §3

MRSP ST71 strain E104 = experiment: Growth curve analysis (BioScreen); assay type: cell-based, Staphylococcus pseudintermedius; settings: at the MIC, MRSP E104, OD600, 6 h, 37 °C
Protocol: First, we performed growth curve analysis using the well-characterized MRSP ST71 strain E104, which is resistant to a number of antibiotics. […] A well-characterized antimicrobial peptide, nisin, was used as control. […] Increased concentrations of nisin inhibited proportionally the growth of E104, both at sub-MIC and MIC concentrations.
The effect of D2 or analogues or nisin on the growth of MRSP strain E104 was evaluated using BioScreen (Oy Growth Curves Ab LTd, Helsinki, Finland). Freshly grown culture of E104 was diluted to OD 0.2 at 600 nm, supplemented with increased concentration of antimicrobials and distributed in a 100 well honeycomb micro-plate with volume 100 μL. The plate was incubated for 6 h at 37 °C with continuous shaking. The OD600 of each micro-culture was measured and recorded every 15 min after a 5 s pause of shaking in automatic mode. Recorded OD was plotted against time to prepare the growth curves. Experiment was performed twice and one representative result was presented.

S. aureus = experiment: MIC against canine clinical S. aureus strains (Table S2); assay type: cell-based, Staphylococcus aureus; settings: for MIC S. aureus 25054: 25054, 8 G6, dog, 2009; for MIC S. aureus 25054 / MIC S. aureus 28264 / MIC S. aureus 36968: wound; for MIC S. aureus 27266: 27266, 16 G9, dog, 2010; for MIC S. aureus 27266 / MIC S. aureus 37708-2 / MIC S. aureus 38200 / MIC S. aureus 38565-1: skin; for MIC S. aureus 28264: 28264, 20 B1, dog, 2011; for MIC S. aureus 30935: 30935, 24 B9, dog, 2013; for MIC S. aureus 30935 / MIC S. aureus 37595: joint; for MIC S. aureus 36968: 36968, 61 A9, dog; for MIC S. aureus 36968 / MIC S. aureus 37595 / MIC S. aureus 37708-2 / MIC S. aureus 38200: 2016; for MIC S. aureus 37595: 37595, 65 D2, dog; for MIC S. aureus 37708-2: 37708-2, 66 C6, dog; for MIC S. aureus 38200: 38200, 68 E9, dog; for MIC S. aureus 38565-1: 38565-1, 70 A5, dog; for MIC S. aureus 38565-1 / MIC S. aureus 38841: 2017; for MIC S. aureus 38841: 38841, 70 G5, dog, urine
Protocol: (§4) Similarly, in this study, to assess the degree of selectivity for S. pseudintermedius, D2 and D2D were tested against a collection of S. aureus and MSSP strains (Table S2).
as §1

S. pseudintermedius = experiment: MIC against canine clinical S. pseudintermedius strains (Table S2); assay type: cell-based, Staphylococcus pseudintermedius; settings: for MIC S. pseudintermedius 22963: 22963, 3 B9, dog, 2007; for MIC S. pseudintermedius 26071: 26071, 11 E5, dog; for MIC S. pseudintermedius 26071 / MIC S. pseudintermedius 26092-2 / MIC S. pseudintermedius 33228 / MIC S. pseudintermedius 37526-1 / MIC S. pseudintermedius 37535-1: skin; for MIC S. pseudintermedius 26071 / MIC S. pseudintermedius 26092-2: 2009; for MIC S. pseudintermedius 26092-2: 26092-2, 11 E4, dog; for MIC S. pseudintermedius 26959: 26959, 15 F8, dog, 2010; for MIC S. pseudintermedius 26959 / MIC S. pseudintermedius 27364: wound; for MIC S. pseudintermedius 27364: 27364, 17 A7, dog; for MIC S. pseudintermedius 27364 / MIC S. pseudintermedius 27382: 2011; for MIC S. pseudintermedius 27382: 27382, 17 B8, dog; for MIC S. pseudintermedius 27382 / MIC S. pseudintermedius 31524 / MIC S. pseudintermedius 35890: ear; for MIC S. pseudintermedius 31524: 31524, 54 C3, dog, 2013; for MIC S. pseudintermedius 33228: 33228, 55 E2, dog, 2014; for MIC S. pseudintermedius 35890: 35890, 59 B8, dog, 2015; for MIC S. pseudintermedius 37526-1: 37526-1, 65 B4, dog; for MIC S. pseudintermedius 37526-1 / MIC S. pseudintermedius 37535-1: 2016; for MIC S. pseudintermedius 37535-1: 37535-1, 65 B6, dog; for MIC S. pseudintermedius 38637: 38637, 70 C3, dog, wound 2017; for MIC S. pseudintermedius 38820: 38820, 70 F9, dog, urine 2017
Protocol: as §4, §1

red blood cell (RBC) = settings: 0.5% RBC suspension in PBS, 1 h, 37 °C, read at 414 nm, normalized to mellitin and PBS, triplicates
Protocol: Briefly, 75 µL of peptide in PBS was mixed with 75 µL of a 0.5% red blood cell (RBC) suspension in PBS, and incubated for 1 h at 37 °C. The hemoglobin release was then measured at 414 nm and normalized, using mellitin as positive control and PBS as negative control. Experiments were done in triplicates.

Compound | MIC MSSP [1] [µg/mL] | MIC MRSP [2] [µg/mL] | MIC SA [3] [µg/mL] | MIC E. coli (E. coli, 30235) [µg/mL] | inhibition of DNA biosynthesis rate [5] [%] | effect on (inhibition of) cell wall synthesis [6] [%] | growth curve, change of cell optical density over time (MRSP ST71 strain E104) | MIC S. aureus 25054 (S. aureus) [µg/mL] | MIC S. aureus 27266 (S. aureus) [µg/mL] | MIC S. aureus 28264 (S. aureus) [µg/mL] | MIC S. aureus 30935 (S. aureus) [µg/mL] | MIC S. aureus 36968 (S. aureus) [µg/mL] | MIC S. aureus 37595 (S. aureus) [µg/mL] | MIC S. aureus 37708-2 (S. aureus) [µg/mL] | MIC S. aureus 38200 (S. aureus) [µg/mL] | MIC S. aureus 38565-1 (S. aureus) [µg/mL] | MIC S. aureus 38841 (S. aureus) [µg/mL] | MIC S. pseudintermedius 22963 (S. pseudintermedius) [µg/mL] | MIC S. pseudintermedius 26071 (S. pseudintermedius) [µg/mL] | MIC S. pseudintermedius 26092-2 (S. pseudintermedius) [µg/mL] | also measured
CCCC[C@@H](NC(=O)[C@@H](CCCCN)NC(=O)[C@@H](Cc1cccc2ccccc12)NC(=O)[C@@H](CCCCN)NC(=O)[C@@H](Cc1ccccc1)NC(=O)[C@@H](Cc1cccc2ccccc12)NC(=O)[C@@H](CCCCN)NC(=O)[C@H](N)CCCCN)C(N)=O [D2D] (H-[dK][dK][d1Nal][dF][dK][d1Nal][dK][dNle]-NH2) | 1 to 4 | 4 (≈ 3.38 µM) | 4 (≈ 3.38 µM) | 4 (≈ 3.38 µM) | 37 | 39 | cell lysis | 2 (≈ 1.69 µM) | 2 (≈ 1.69 µM) | 4 (≈ 3.38 µM) | 2 (≈ 1.69 µM) | 4 (≈ 3.38 µM) | 2 (≈ 1.69 µM) | 4 (≈ 3.38 µM) | 2 (≈ 1.69 µM) | 2 (≈ 1.69 µM) | 4 (≈ 3.38 µM) | 2 (≈ 1.69 µM) | 1 (≈ 0.844 µM) | 1 (≈ 0.844 µM) | MICs against canine P. aeruginosa isolates ([4]; isolates from canine infections, 18 h): 4 µg/mL; MIC S. pseudintermedius 26959 (S. pseudintermedius): 2 µg/mL (≈ 1.69 µM); MIC S. pseudintermedius 27364 (S. pseudintermedius): 2 µg/mL (≈ 1.69 µM); MIC S. pseudintermedius 27382 (S. pseudintermedius): 2 µg/mL (≈ 1.69 µM); MIC S. pseudintermedius 31524 (S. pseudintermedius): 2 µg/mL (≈ 1.69 µM); MIC S. pseudintermedius 33228 (S. pseudintermedius): 2 µg/mL (≈ 1.69 µM); MIC S. pseudintermedius 35890 (S. pseudintermedius): 2 µg/mL (≈ 1.69 µM); MIC S. pseudintermedius 37526-1 (S. pseudintermedius): 2 µg/mL (≈ 1.69 µM); MIC S. pseudintermedius 37535-1 (S. pseudintermedius): 2 µg/mL (≈ 1.69 µM); MIC S. pseudintermedius 38637 (S. pseudintermedius): 2 µg/mL (≈ 1.69 µM); MIC S. pseudintermedius 38820 (S. pseudintermedius): 2 µg/mL (≈ 1.69 µM); HA, percentage of hemolysis at 150 µM (red blood cell (RBC)): 35%
CCCCN(CC(N)=O)C(=O)CN(CCCCN)C(=O)CN(Cc1cccc2ccccc12)C(=O)CN(CCCCN)C(=O)CN(Cc1ccc(C)cc1)C(=O)CN(Cc1cccc2ccccc12)C(=O)CN(CCCCN)C(=O)CNCCCCN [D2] (H-[Nlys][Nlys][N(1-naphthylmethyl)Gly][N(4-MeBn)Gly][Nlys][N(1-naphthylmethyl)Gly][Nlys][NBuGly]-NH2) | 2 to 4 | 4 (≈ 3.34 µM) | 8 (≈ 6.67 µM) | 64 (≈ 53.4 µM) | < 5 | 28 | cell lysis | 4 (≈ 3.34 µM) | 8 (≈ 6.67 µM) | 4 (≈ 3.34 µM) | 4 (≈ 3.34 µM) | 4 (≈ 3.34 µM) | 4 (≈ 3.34 µM) | 8 (≈ 6.67 µM) | 4 (≈ 3.34 µM) | 4 (≈ 3.34 µM) | 8 (≈ 6.67 µM) | 1 to 2 | 1 (≈ 0.834 µM) | 1 (≈ 0.834 µM) | MIC range, panel of 50 P. aeruginosa isolates ([4]; 50 isolates from canine infections): 3.12 to 12.5 µM; MIC S. pseudintermedius 26959 (S. pseudintermedius): 2 µg/mL (≈ 1.67 µM); MIC S. pseudintermedius 27364 (S. pseudintermedius): 1 µg/mL (≈ 0.834 µM); MIC S. pseudintermedius 27382 (S. pseudintermedius): 1 µg/mL (≈ 0.834 µM); MIC S. pseudintermedius 31524 (S. pseudintermedius): 1 µg/mL (≈ 0.834 µM); MIC S. pseudintermedius 33228 (S. pseudintermedius): 1 µg/mL (≈ 0.834 µM); MIC S. pseudintermedius 35890 (S. pseudintermedius): 1 µg/mL (≈ 0.834 µM); MIC S. pseudintermedius 37526-1 (S. pseudintermedius): 1 µg/mL (≈ 0.834 µM); MIC S. pseudintermedius 37535-1 (S. pseudintermedius): 1 µg/mL (≈ 0.834 µM); MIC S. pseudintermedius 38637 (S. pseudintermedius): 1 µg/mL (≈ 0.834 µM); MIC S. pseudintermedius 38820 (S. pseudintermedius): 1 µg/mL (≈ 0.834 µM); HA, percentage of hemolysis at 150 µM (red blood cell (RBC)): 24%
